From the Bradley open melting point set (2014)

melting point [°C] | Structure (SMILES)
129 | O=C(/C=C/c1ccc(-c2ccc(Br)cc2)o1)c1ccccc1 [(2E)-3-[5-(4-Bromophenyl)-2-furyl]-1-phenylprop-2-en-1-one]
113 | C/C(=C\C=C\c1ccccc1)C(=O)OC(=O)/C(C)=C/C=C/c1ccccc1 [(2E,4E)-2-methyl-5-phenylpenta-2,4-dienoic anhydride]
171 | O=C(O)[C@H](O)[C@@H](O)C(=O)O [(2R,3R)-2,3-Dihydroxysuccinic acid]
173 | O=C(O)[C@@H](O)[C@H](O)C(=O)O [(2S,3S)-2,3-Dihydroxysuccinic acid]
61 | COC1=C(OC)/C(=C/C=O)OC1=O [(2Z)-(3,4-dimethoxy-5-oxofuran-2(5H)-ylidene)ethanal]
138 | O=C(O)/C=C\C(=O)O [(2Z)-But-2-enedioic acid]
75 | CC(=O)/C(C)=N\O [(3Z)-3-(Hydroxyimino)butan-2-one]
149 | CC(C)CCC[C@@H](C)[C@H]1CC[C@H]2[C@@H]3CC=C4C[C@@H](O)CC[C@]4(C)[C@H]3CC[C@]12C [(3beta)-Cholest-5-en-3-ol]
57 | Cc1ccc(C(=O)c2ccccc2)cc1 [(4-Methylphenyl)(phenyl)methanone]
137 | N#CCc1c[nH]cn1 [(4-imidazolyl)acetonitrile]
167 | O=C(O)CSc1nnc(S)s1 [(5-mercapto-1,3,4-thiadiazol-2-ylthio)acetic acid]
208 | CC(=O)O[C@]1(C(C)=O)CC[C@H]2[C@@H]3C[C@H](C)C4=CC(=O)CC[C@]4(C)[C@H]3CC[C@@]21C [(6alpha)-6-Methyl-3,20-dioxopregn-4-en-17-yl acetate]
79 | CCCCCCCC/C=C\CCCCCCCCCCCC(N)=O [(13Z)-Docos-13-enamide]
42 | CCCCCOc1ccc(/N=N/c2ccc(CCCC)cc2)cc1 [(E)-1-(4-butylphenyl)-2-[4-(pentyloxy)phenyl]diazene]
212 | O=C(O)/C(=C/c1ccccc1[N+](=O)[O-])c1ccccc1F [(E)-2-(2-Fluorophenyl)-3-(2-nitrophenyl)propenoic acid]
228 | O=C(O)/C(=C/c1ccccc1)c1ccc([N+](=O)[O-])cc1 [(E)-2-(4-nitrophenyl)-3-phenylpropenoic acid]
149 | Cc1ccccc1/C=C(\C#N)c1nc2ccccc2s1 [(E)-2-Benzothiazol-2-yl-3-o-tolyl-acrylonitrile]
185 | O=C(O)/C(=C/c1cccc([N+](=O)[O-])c1)c1ccccc1 [(E)-2-phenyl-3-(3-nitrophenyl)propenoic acid]
216 | O=C(O)/C(=C/c1ccc([N+](=O)[O-])cc1)c1ccccc1 [(E)-2-phenyl-3-(4-nitrophenyl)propenoic acid]
37.5 | O=C(c1ccccc1)c1c(F)c(F)c(F)c(F)c1F [(Pentafluorophenyl)(phenyl)methanone]
37 | CC(C)(C)OC(=O)N1CCC[C@H](O)C1 [(S)-1-boc-3-hydroxypiperidine]

melting point [°C] | Structure (SMILES)
62 | O=C(O)CSCc1ccccc1 [(benzylthio)acetic acid]
81 | C/C(=C\c1ccccc1)c1ccccc1 [(e)-alpha-methylstilbene]
-48 | [2H]C([2H])=C(C(=O)OC([2H])([2H])[2H])C([2H])([2H])[2H] [(~2~H_3_)Methyl 2-(~2~H_3_)methyl(~2~H_2_)prop-2-enoate]
82 | [2H]c1c([2H])c([2H])c2c([2H])c([2H])c([2H])c([2H])c2c1[2H] [(~2~H_8_)Naphthalene]
121 | CCCC(=O)Nc1ccc(OCC(O)CNC(C)C)c(C(C)=O)c1 (configuration not stated) [Acebutolol]
-124 | CC=O [Acetaldehyde]
170 | CC(=O)Nc1ccc(O)cc1 [Acetaminophen]
114 | CC(=O)Nc1ccccc1 [Acetanilide]
135 | CC(=O)Oc1ccccc1C(=O)O [Acetylsalicylic acid]
70 | CC1(C)C=C(C(=O)O)C1 [Acid 9 (No name)]
120 | Oc1ccc(OCc2ccccc2)cc1 [Agerite]
264 | CC(N)C(=O)O (configuration not stated) [Alanine]
166 | C[C@]12CCC(=O)C=C1CC[C@@H]1[C@@H]2[C@@H](O)C[C@]2(C=O)[C@@H](C(=O)CO)CC[C@@H]12 [Aldosterone]
190 | CC=1CCCC(C)(C)C=1/C=CC(C)=CC=CC(C)=CC(=O)O [Alitretinoin]
204 | NCC[C@H](O)C(=O)N[C@@H]1C[C@H](N)[C@@H](O[C@H]2O[C@H](CN)[C@@H](O)[C@H](O)[C@H]2O)[C@H](O)[C@H]1O[C@H]1O[C@H](CO)[C@@H](O)[C@H](N)[C@H]1O [Amikacin]
170 | C[C@@H]1[C@H](O)[C@@H](C)C=CC=CC=CC=CC=CC=CC=C[C@H](O[C@@H]2O[C@H](C)[C@@H](O)[C@H](N)[C@@H]2O)C[C@@H]2O[C@](O)(C[C@@H](O)C[C@@H](O)[C@H](O)CC[C@@H](O)C[C@@H](O)CC(=O)O[C@H]1C)C[C@H](O)[C@H]2C(=O)O [Amphotericin B]
-37 | COc1ccccc1 [Anisole]
156 | O=C1c2ccccc2Cc2ccccc21 [Anthracen-9(10H)-one]
130 | O=[N+]([O-])c1ccc(C=NO)cc1 [Benzaldehyde, 4-nitro-, oxime]
102 | Nc1ccccc1N [Benzene-1,2-diamine]
43.5 | O=S(=O)(O)c1ccccc1 [Benzenesulfonic acid]

melting point [°C] | Structure (SMILES)
90 | CCOC(=O)c1ccc(N)cc1 [Benzocaine, Ethyl 4-aminobenzoate]
122 | O=C(O)c1ccccc1 [Benzoic acid]
137 | O=C(c1ccccc1)C(O)c1ccccc1 (configuration not stated) [Benzoin]
232 | C[C@H]1C[C@H]2[C@@H]3CCC4=CC(=O)C=C[C@]4(C)[C@@]3(F)[C@@H](O)C[C@]2(C)[C@@]1(O)C(=O)CO [Betamethasone]
239 | Clc1cc2c(cc1Cl)-c1cc(Cl)c(Cl)cc1-2 [Biphenylene, 2,3,6,7-tetrachloro-]
-7.2 | BrBr [Bromine]
-116 | CCCCS [Butane-1-thiol]
58 | CCCCOC(=O)c1ccc(N)cc1 [Butyl 4-aminobenzoate]
68.5 | CCCCOC(=O)c1ccc(O)cc1 [Butyl 4-hydroxybenzoate]
-96 | CCCC=O [Butyraldehyde]
-5 | CCCC(=O)O [Butyric acid]
113 | C=C1C(C[C@@H](O)C[C@@H]1O)=CC=C2/CCC[C@]3(C)[C@H](CC[C@@H]23)[C@H](C)CCCC(C)(C)O [Calcitriol]
180 | CC1(C)[C@H]2CC[C@]1(C)C(=O)C2 [Camphor]
16.3 | CCCCCCCC(=O)O [Caprylic acid]
247 | c1ccc2c(c1)[nH]c1ccccc12 [Carbazole]
204 | C[C@@](Cc1ccc(O)c(O)c1)(NN)C(=O)O [Carbidopa]
140 | CC1=C(C(=O)O)N2C(=O)[C@@H](NC(=O)[C@H](N)C3=CCC=CC3)[C@H]2SC1 [Cefradine]
222 | CON=C(/c1ccco1)C(=O)N[C@@H]3C(=O)N2C(=C(COC(N)=O)CS[C@@H]23)C(=O)O [Cefuroxime]
76 | COc1ccc(C=CC(=O)c2ccccc2)cc1 [Chalcone, 4-methoxy-]
-58 | C[Si](C)(C)Cl [Chloro(trimethyl)silane]

Structure (SMILES) | melting point [°C]
BrCCCCOc1ccccc1 [(4-bromobutoxy)benzene] | 42
C=C[C@H]1C[N@@]2CC[C@H]1C[C@@H]2[C@@H](O)c1ccnc2ccccc12 [(9S)-Cinchonan-9-ol] | 265
CC12CCC3C(CCC4CC(CC(=O)O)=CCC43C)C1CCC2=O (configuration not stated) [(17-oxoandrost-2-en-3-yl)acetic acid] | 177
C[C@]12CC[C@H]3[C@@H](CCC4=CC(=O)CC[C@@]43C)[C@@H]1CC[C@@H]2O [(17beta)-17-Hydroxyandrost-4-en-3-one] | 155
[2H]c1c([2H])c2c([2H])c([2H])c3c([2H])c([2H])c([2H])c4c([2H])c([2H])c(c1[2H])c2c34 [(~2~H_10_)Pyrene] | 156
[2H]c1c([2H])c([2H])c(-c2c([2H])c([2H])c(-c3c([2H])c([2H])c([2H])c([2H])c3[2H])c([2H])c2[2H])c([2H])c1[2H] [(~2~H_14_)-1,1':4',1''-Terphenyl] | 213
CC(=O)OC(C)=O [Acetic anhydride] | -73
C=CC=O [Acrylaldehyde] | -87
NC1=NCC(c2ccccc2)O1 (configuration not stated) [Aminorex] | 137
C=CCC1(CC(C)C)C(=O)NC(=O)NC1=O [BUTALBITAL] | 138
CCC1(CC)C(=O)NC(=O)NC1=O [Barbital] | 190
N#Cc1cc(C#N)c(C#N)cc1C#N [Benzene-1,2,4,5-tetracarbonitrile] | 265
Nc1ccc(N)cc1 [Benzene-1,4-diamine] | 140
c1ccc2c(c1)cc1ccc3cccc4ccc2c1c34 [Benzo[pqr]tetraphene] | 176
O=C(Cl)c1ccccc1 [Benzoyl chloride] | -1
Nc1ccccc1-c1ccccc1 [Biphenyl-2-amine] | 51.5
Nc1ccc(-c2ccc(N)cc2)cc1 [Biphenyl-4,4'-diamine] | 128
Oc1ccc(-c2ccccc2)cc1 [Biphenyl-4-ol] | 167
CC(C)CCCCCCCOC(=O)c1ccccc1C(=O)OCCCCCCCC(C)C [Bis(8-methylnonyl) phthalate] | -50
Brc1ccccc1 [Bromobenzene] | -31
CCC(C)C1(CC)C(=O)NC(=O)NC1=O (configuration not stated) [Butabarbital] | 166
CCCCc1ccccc1 [Butylbenzene] | -88
CC[C@@]1(O)C(=O)OCc2c1cc1n(c2=O)Cc2cc3ccccc3nc2-1 [Camptothecin] | 276
[C-]#[O+] [Carbon monooxide] | -205
NNC(=O)NN [Carbonohydrazide] | 158
